Starred links: 1 amine or outer side, 2 acyl side, 3 side chain; linkers in the order of their positions; H or OH if unused. Non-standard residues stand in square brackets, D forms with d. Residues, ends and D or L forms follow the SMILES beside them. *: point of attachment. Phe(4-NO2) = N[C@@H](Cc1ccc([N+](=O)[O-])cc1)C(=O)O; Phe(4-amidino) = N=C(N)c1ccc(C[C@H](N)C(=O)O)cc1; Arg(NO2) = N=C(NCCC[C@H](N)C(=O)O)N[N+](=O)[O-]; Orn(acetimidoyl) = CC(=N)NCCC[C@H](N)C(=O)O; d(hArg) = N=C(N)NCCCC[C@@H](N)C(=O)O; Abu(4-CN) = N#CCC[C@H](N)C(=O)O; Cha = N[C@@H](CC1CCCCC1)C(=O)O; Agb = N=C(N)NCC[C@H](N)C(=O)O; Ala(CN) = N#CC[C@H](N)C(=O)O; Phg = N[C@H](C(=O)O)c1ccccc1; Dab = NCC[C@H](N)C(=O)O; CO = O=C([*:1])[*:2]; Alloc = C=CCOC(=O)*; Bn = c1ccc(C*)cc1; NHAllyl = C=CCN*; Acm = CC(=O)NC*
Target: T1, human factor VIIa and TF (Homo sapiens, UniProt P08709)
T1 construct: human factor VIIa and TF
T1 sequence (P08709 213-466 limits assumed): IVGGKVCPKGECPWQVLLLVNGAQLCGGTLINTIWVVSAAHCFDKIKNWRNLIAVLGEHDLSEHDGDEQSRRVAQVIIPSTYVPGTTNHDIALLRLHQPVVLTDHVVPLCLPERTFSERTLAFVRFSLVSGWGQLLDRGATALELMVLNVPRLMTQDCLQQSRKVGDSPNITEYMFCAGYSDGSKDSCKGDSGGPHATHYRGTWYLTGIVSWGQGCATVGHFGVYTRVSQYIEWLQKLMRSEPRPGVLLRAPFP
T1 sequence (P08709 61-212 limits assumed): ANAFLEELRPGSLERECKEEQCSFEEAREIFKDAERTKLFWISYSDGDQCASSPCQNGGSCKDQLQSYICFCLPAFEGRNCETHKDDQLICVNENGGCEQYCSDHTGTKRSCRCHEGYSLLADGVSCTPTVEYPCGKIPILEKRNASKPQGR
T1 sequence (P13726 33-295 partner): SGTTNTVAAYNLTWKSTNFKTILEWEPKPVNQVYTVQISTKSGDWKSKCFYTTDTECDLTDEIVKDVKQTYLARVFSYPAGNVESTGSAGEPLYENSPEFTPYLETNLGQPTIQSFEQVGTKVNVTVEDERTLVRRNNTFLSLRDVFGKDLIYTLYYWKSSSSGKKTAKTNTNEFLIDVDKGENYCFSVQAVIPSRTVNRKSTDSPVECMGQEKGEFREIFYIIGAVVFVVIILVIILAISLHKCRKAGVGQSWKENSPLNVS
Test: Determination of Ki for FVIIa inhibition (chromogenic assay, substrate S-2288)
Assay type: biochemical
Details: human factor VIIa 5 nM and TF 10 nM, S-2288 500 μM, 25° C., 15 minute preincubation, pH 8.15; read-out: Factor VIIa inhibitory activities Ki
Experimental: The inhibitory activity (Ki) of each compound towards […] activity was determined using a chromogenic assay essentially as described previously. J. A. Ostrem, F. Al-Obeidi, P. Safar, A. Safarova, S. K. Stringer, M. Patek, M. T. Cross, J. Spoonamore, J. C. LoCascio, P. Kasireddy, D. S. Thorpe, N. Sepetov, M. Lebi, P. Wildgoose, P. Strop, "Discovery of a novel, potent, and specific family of factor Xa inhibitors via combinatorial chemistry". Biochemistry 37 (1998) 1053-1059. Kinetic assays were conducted at 25° C. in half-area microtiter plates (Costar Corp., Cambridge, Mass.) using a kinetic plate reader (Molecular Devices Spectramax 250). A typical assay consisted of 25 μl of human factor VIIa and TF (5 nM and 10 nM, respective final concentration) combined with 40 μl of inhibitor dilutions in 10% DMSO/TBS-PEG buffer (50 mM Tris, 15 mM NaCl, 5 mM CaCl2; 0.05% PEG 8k, pH 8.15). Following a 15 minute preincubation period, the assay was initiated by the addition of 35 μl of the chromogenic substrate S-2288 (D-Ile-Pro-Arg-pNA, Pharmacia Hepar Inc, 500 μM final concentration.). The apparent inhibition constants were calculated from the slope of the progress curves during the linear part of the time course, typically between 1 and 5 min following addition of substrate to the assay. The true Ki was subsequently determined for each compound by correcting for substrate concentration (S) and the Km using the formula Ki=Ki app/(1+(S)/Km). I. H. Segal, Enzyme Kinetics, pp 100-125 (John Wiley & Sons, N.Y., 1975).

Structure (SMILES) | Ki [nM]
C=CCOC(=O)N[C@@H](Cc1ccc(C(=N)N)cc1)C(=O)N[C@@H](CCC(=O)O)C(=O)N[C@@H](CC#N)C(=O)N[C@@H](CC1CCCCC1)C(N)=O [Alloc--pAph--Glu--Ala(3-CN)--Cha--NH2] (Alloc-[Phe(4-amidino)]E[Ala(CN)][Cha]-NH2) | 120
C=CCOC(=O)N[C@@H](Cc1ccc(C(=N)N)cc1)C(=O)N[C@@H](CCC(=O)O)C(=O)N[C@@H](CCSC)C(=O)N[C@@H](CC1CCCCC1)C(N)=O [Alloc--pAph--Glu--Met--Cha--NH2] (Alloc-[Phe(4-amidino)]EM[Cha]-NH2) | 110
C=CCOC(=O)N[C@@H](Cc1ccc(C(=N)N)cc1)C(=O)N[C@@H](CCC(=O)O)C(=O)N[C@@H](CC(N)=O)C(=O)NCCc1ccc2ccccc2c1 [Alloc--pAph--Glu--Asn-2-(2-naphthyl)ethylamide] | 52
C=CCOC(=O)N[C@@H](Cc1ccc(C(=N)N)cc1)C(=O)N[C@@H](CCC(=O)O)C(=O)N[C@@H](CNC(=N)N)C(N)=O [Alloc--pAph--Glu--Dap[--C(=NH)--NH2]--NH2] | 260
C=CCOC(=O)N[C@@H](Cc1ccc(C(=N)N)cc1)C(=O)N[C@@H](CCC(=O)O)C(=O)N[C@@H](CCNC(C)=N)C(=O)N[C@@H](CC1CCCCC1)C(N)=O [Alloc--pAph--Glu--Dab[--C(=NH)--CH3]--Cha--NH2] | 190
C=CCOC(=O)N[C@@H](Cc1ccc(C(=N)N)cc1)C(=O)N[C@@H](CCC(=O)O)C(=O)N[C@H](C(=O)NCCC(c1ccccc1)c1ccccc1)[C@@H](C)OCc1ccccc1 [Alloc-pAph-Glu-Thr(Bzl)-NH--CH2 --CH2 --CH(Ph)2] | 170
C=CCOC(=O)N[C@@H](Cc1ccc(C(=N)N)cc1)C(=O)N[C@@H](CCC(=O)O)C(=O)N[C@@H](CCCN)C(N)=O [Alloc--pAph--Glu--Orn--NH2] | 6200
C=CCOC(=O)N[C@@H](Cc1ccc(C(=N)N)cc1)C(=O)N[C@@H](CCC(=O)O)C(=O)N[C@@H](CSCNC(C)=O)C(=O)N[C@@H](CC1CCCCC1)C(N)=O [Alloc--pAph--Glu--Cys(Acm)--Cha--NH2] (Alloc-[Phe(4-amidino)]EC(Acm)[Cha]-NH2) | 120
C=CCOC(=O)N[C@@H](Cc1ccc(C(=N)N)cc1)C(=O)N[C@@H](CCC(=O)O)C(=O)N[C@@H](CC(N)=O)C(=O)NCc1ccc(F)cc1F [Alloc--pAph--Glu--Asn-2,4-difluorobenzylamide] | 51
C=CCOC(=O)N[C@@H](Cc1ccc(C(=N)N)cc1)C(=O)N[C@@H](CCC(=O)O)C(=O)N[C@@H](CCN)C(=O)N[C@@H](CC1CCCCC1)C(N)=O [Alloc--pAph--Glu--Dab--Cha--NH2, Alloc-pAph-Glu-Dab-Cha-NH2] (Alloc-[Phe(4-amidino)]E[Dab][Cha]-NH2) | 55
C=CCOC(=O)N[C@@H](Cc1ccc(C(=N)N)cc1)C(=O)N[C@@H](CCC(=O)O)C(=O)N[C@@H](CC(N)=O)C(=O)NCCN1CCOCC1 [Alloc--pAph--Glu--Asn-2-(4-morpholinyl)ethylamide] | 410
C=CCOC(=O)N[C@@H](Cc1ccc(C(=N)N)cc1)C(=O)N[C@@H](CCC(=O)O)C(=O)N[C@@H](CCCNC(C)=N)C(=O)N[C@@H](CC1CCCCC1)C(N)=O [Alloc--pAph--Glu--Orn[--C(=NH)--CH3]--Cha--NH2] (Alloc-[Phe(4-amidino)]E[Orn(acetimidoyl)][Cha]-NH2) | 130
C=CCOC(=O)N[C@@H](Cc1ccc(C(=N)N)cc1)C(=O)N[C@@H](CCC(=O)O)C(=O)N[C@@H](CC(N)=O)C(=O)NCC1CCCCC1 [Alloc--pAph--Glu--Asn--NH--CH2 --Chx, Alloc-pAph-Glu-Asn-NH--CH2 -Chx] | 150
C=CCOC(=O)N[C@@H](Cc1ccc(C(=N)N)cc1)C(=O)N[C@@H](CCC(=O)O)C(=O)N[C@H](CCCNC(=N)N)C(=O)N[C@@H](CC1CCCCC1)C(N)=O [Alloc--pAph--Glu--D--Arg--Cha--NH2] (Alloc-[Phe(4-amidino)]E[dR][Cha]-NH2) | 12000
C=CCOC(=O)N[C@@H](Cc1ccc(C(=N)N)cc1)C(=O)N[C@@H](CCC(=O)O)C(=O)N[C@@H](CSC)C(=O)N[C@@H](CC1CCCCC1)C(N)=O [Alloc--pAph--Glu--Cys(Me)--Cha--NH2] (Alloc-[Phe(4-amidino)]EC(Me)[Cha]-NH2) | 200
C=CCOC(=O)N[C@@H](Cc1ccc(C(=N)N)cc1)C(=O)N[C@@H](CCC(=O)O)C(=O)N[C@H](CCCCNC(=N)N)C(=O)N[C@@H](CC1CCCCC1)C(N)=O [Alloc--pAph--Glu--D--Lys[--C(=NH)--NH2]--Cha--NH2] (Alloc-[Phe(4-amidino)]E[d(hArg)][Cha]-NH2) | 22000
C=CCOC(=O)N[C@@H](Cc1ccc(C(=N)N)cc1)C(=O)N[C@@H](CCC(=O)O)C(=O)N[C@@H](CC(N)=O)C(=O)NCc1ccc2c(c1)OCO2 [Alloc--pAph--Glu--Asn-3,4-methylenedioxybenzylamide] | 120
C=CCOC(=O)N[C@@H](Cc1ccc(C(=N)N)cc1)C(=O)N[C@@H](CCC(=O)O)C(=O)N[C@@H](CC(N)=O)C(=O)N(Cc1ccccc1)Cc1ccccc1 [Alloc--pAph--Glu--Asn-N,N-dibenzylamide] | 410
C=CCOC(=O)N[C@@H](Cc1ccc(C(=N)N)cc1)C(=O)N[C@@H](CCC(=O)O)C(=O)N[C@@H](Cc1ccc([N+](=O)[O-])cc1)C(=O)N[C@@H](CC1CCCCC1)C(N)=O [Alloc--pAph--Glu--Phe(4-NO2)--Cha--NH2] (Alloc-[Phe(4-amidino)]E[Phe(4-NO2)][Cha]-NH2) | 46
C=CCNC(=O)N[C@@H](Cc1ccc(C(=N)N)cc1)C(=O)N[C@@H](CCC(=O)O)C(=O)N[C@@H](CCCNC(=N)N)C(=O)N[C@@H](CC1CCCCC1)C(N)=O [allyl-NH--C(O)-pAph-Glu-Arg-Cha-NH2] ({NHAllyl-CO}-[Phe(4-amidino)]ER[Cha]-NH2) | 42
C=CCOC(=O)N[C@@H](Cc1ccc(C(=N)N)cc1)C(=O)N[C@@H](CCC(=O)O)C(=O)N[C@@H](CCC#N)C(=O)N[C@@H](CC1CCCCC1)C(N)=O [Alloc--pAph--Glu-2-Abu(4-CN)--Cha--NH2] (Alloc-[Phe(4-amidino)]E[Abu(4-CN)][Cha]-NH2) | 63

Now those with a lower Ki, led by results:

Ki [nM] | Structure (SMILES)
30 | C=CCOC(=O)N[C@@H](Cc1ccc(C(=N)N)cc1)C(=O)N[C@@H](CCC(=O)O)C(=O)N[C@@H](CC(=N)N)C(=O)N[C@@H](CC1CCCCC1)C(N)=O [Alloc-pAph-Glu-Ala[3-C(=NH)--NH2 ]-Cha-NH2]
26 | C=CCOC(=O)N[C@@H](Cc1ccc(C(=N)N)cc1)C(=O)N[C@@H](CCC(=O)O)C(=O)N[C@@H](CSCc1ccccc1)C(=O)N[C@@H](CC1CCCCC1)C(N)=O [Alloc--pAph--Glu--Cys(Bzl)--Cha--NH2] (Alloc-[Phe(4-amidino)]EC(Bn)[Cha]-NH2)
24 | C=CCOC(=O)N[C@@H](Cc1ccc(C(=N)N)cc1)C(=O)N[C@@H](CCC(=O)O)C(=O)N[C@@H](CC(N)=O)C(=O)NCCC(c1ccccc1)c1ccccc1 [Alloc--pAph--Glu--Asn-3,3-diphenylpropylamide]
23 | C=CCOC(=O)N[C@@H](Cc1ccc(C(=N)N)cc1)C(=O)N[C@@H](CCC(=O)O)C(=O)N[C@@H](CC(N)=O)C(=O)NCCc1cccc(Cl)c1 [Alloc--pAph--Glu--Asn-2-(3-chlorophenyl)ethylamide]
21 | C=CCOC(=O)N[C@@H](Cc1ccc(C(=N)N)cc1)C(=O)N[C@@H](CCC(=O)O)C(=O)N[C@@H](CC(N)=O)C(=O)N[C@@H](CC1CCCCC1)C(N)=O [Alloc--pAph--Glu--Asn--Cha--NH2, Alloc-pAph-Glu-Asn-Cha-NH2] (Alloc-[Phe(4-amidino)]EN[Cha]-NH2)
19 | C=CCOC(=O)N[C@@H](Cc1ccc(C(=N)N)cc1)C(=O)N[C@@H](CCC(=O)O)C(=O)N[C@H](C(=O)N[C@@H](CC1CCCCC1)C(N)=O)[C@@H](C)OCc1ccccc1 [Alloc--pAph--Glu--Thr(Bzl)--Cha--NH2] (Alloc-[Phe(4-amidino)]ET(Bn)[Cha]-NH2)
17 | C=CCOC(=O)N[C@@H](Cc1ccc(C(=N)N)cc1)C(=O)N[C@@H](CCC(=O)O)C(=O)N[C@H](C(=O)N[C@@H](CC1CCCCC1)C(N)=O)c1ccccc1 [Alloc--pAph--Glu--Phg--Cha--NH2] (Alloc-[Phe(4-amidino)]E[Phg][Cha]-NH2)
15 | C=CCOC(=O)N[C@@H](Cc1ccc(C(=N)N)cc1)C(=O)N[C@@H](CCC(=O)O)C(=O)N[C@@H](CNC(=N)N)C(=O)N[C@@H](Cc1ccc(C2(c3ccccc3)SCCS2)cc1)C(N)=O [Alloc--pAph--Glu--Dap[--C(=NH)--NH2]--Phe[4-C(--S--(CH2)2 --S--)--Ph]--NH2]
14 | C=CCOC(=O)N[C@@H](Cc1ccc(C(=N)N)cc1)C(=O)N[C@@H](CCC(=O)O)C(=O)N[C@@H](CCCNC(=N)N[N+](=O)[O-])C(=O)N[C@@H](CC1CCCCC1)C(N)=O [Alloc--pAph--Glu--Arg(NO2)--Cha--NH2] (Alloc-[Phe(4-amidino)]E[Arg(NO2)][Cha]-NH2)
12 | C=CCOC(=O)N[C@@H](Cc1ccc(C(=N)N)cc1)C(=O)N[C@@H](CCC(=O)O)C(=O)N[C@@H](CCNC(=N)N)C(=O)N[C@@H](CC1CCCCC1)C(N)=O [Alloc--pAph--Glu--Dab[--C(=NH)--NH2]--Cha--NH2] (Alloc-[Phe(4-amidino)]E[Agb][Cha]-NH2)

Reference: patent US6287794A, “Factor Vlla inhibitors” (Aventis Pharma Deutschland GmbH, priority 1998, dated 2001)
